Legend:
[1] = The compound was tested for its competitive inhibitory activity against Alpha-mannosidase
[2] = The compound was tested for its inhibitory activity against alpha-mannosidase using p-nitrophenylmannopyranoside as substrate

Row | SMILES | Ki [1] [µM] | Km [2] [µM]
1 | O=C(Nc1ccccc1)O/N=C1\OC(CO)C(O)C(O)C1O (centres undefined) | 80 | 1200
2 | O=[N+]([O-])c1ccc(O/N=C2\OC(CO)C(O)C(O)C2O)c([N+](=O)[O-])c1 (centres undefined) | 50 | 570
